Measurements from patent publication US12134610B2, “Somatostatin subtype-2 receptor (SST2R) targeted therapeutics and uses thereof” (priority 2022, dated 2024).
Read-outs that look alike come from different tables or passages of the source. Starred links: 1 amine or outer side, 2 acyl side, 3 side chain; linkers in the order of their positions; H or OH if unused. Non-standard residues stand in square brackets, D forms with d. Residues, ends and D or L forms follow the SMILES beside them. *: point of attachment. X1 = Cc1cc(F)cc(-c2cnc(NCCNC(=O)CCOCCC(=O)*)c(-c3nc4ccc(Cl)cc4[nH]3)c2N2CCC(N)CC2)c1; X5 = Cc1cc(F)cc(-c2cnc(NCCNC(=O)CCOCCC(=O)*)c(-c3nc4cc(Cl)ccc4[nH]3)c2N2CCC(N)CC2)c1; Dolaproine = CO[C@@H]([C@@H]1CCCN1)[C@@H](C)C(=O)O; Dil = CC[C@H](C)[C@H](NC)[C@@H](CC(=O)O)OC; PABC = O=C(OCc1ccc(N[*:1])cc1)[*:2]; X2 = C[C@@H](N*)[C@@H](O)c1ccccc1; Cya = N[C@@H](CS(=O)(=O)O)C(=O)O; Cit = NC(=O)NCCC[C@H](N)C(=O)O; NMeV = CN[C@H](C(=O)O)C(C)C

Experiments:
Assay type in all cases: cell-based
[1] = target: T1, human somatostatin receptor subtype 2 (Homo sapiens, UniProt P30874); test: Functional cAMP assay for SSTR2 agonists (HTRF) in CHO-K1 cells; details: CHO-K1 cells stably expressing human SST2, 20 min
T1 construct: expressed in transfected cells
Description: General overview: All five SSTR subtypes are Gi coupled G-protein coupled receptors (GPCRs) that lead to decreases in intracellular cyclic AMP (cAMP) when activated by an agonist. Therefore, measurement of intracellular cAMP levels can be used to assess whether compounds of the invention are agonists of SSTR subtypes (John Kelly, Troy Stevens, W. Joseph Thompson, and Roland Seifert, Current Protocols in Pharmacology, 2005, 2.2.1-2.2). One example of an intracellular cAMP assay is described below.
Functional Assay for SSTR2 Agonists
Four days prior to the assay, 2,000 Chinese hamster ovary cells (CHO-K1, ATCC #CCL-61) stably expressing the human somatostatin receptor subtype 2 are plated in each well of a 96-well tissue culture-treated plate in Ham's F12 growth media (ThermoFisher #10-080-CM) supplemented with 10% donor bovine serum (Gemini Bio-Products #100-506), 100 U/mL penicillin; 100 ug/mL streptomycin; 2 mM L-glutamine (Gemini Bio-Products #400-110) and 0.2 mg/mL hygromycin B (GoldBio #31282-04-9). The cells are cultured at 37° C., 5% CO2 and 95% humidity. cAMP is measured with HTRF dynamic cAMP assay (Cisbio, #62AM5PEJ) per manufacturer's instructions. On the day of the assay, the media is aspirated and the cells are treated with 50 μL of stimulation buffer supplemented with 10.2 mM 3-Isobutyl-1-methylxanthine (IBMX, Millipore Sigma #15879) and 1.6 μM NKH477 (Tocris #1603), plus various dilutions of SMDCs of the present invention. The cells are incubated for 20 minutes at 37° C. (the final concentration of the compounds of the invention are typically 0-10,000 nM). The cells are treated with 50 μL of lysis buffer (HRTF cAMP kit, Cisbio) and incubated at room temperature for 30 minutes with rotary shaking at 600 rpm, and then diluted with 150 μL of stimulation buffer and shaken for an additional five minutes at 300 rpm. The lysate is transferred to 384-well plates and incubated for 1-24 hours at room temperature, and cAMP accumulation is detected by d2-labeled cAMP and Anti-cAMP-Cryptate. The time-resolved fluorescent signal is read using a m1000 Pro (Tecan) or CLARIOStar (BMG Labtech) microplate reader, where the samples are excited with light at 340 nm and emission light is measured at 620 nm and 665 nm. The data is expressed as a calculation of the fluorescence ratio (665 nm/620 nm). The intracellular cAMP concentrations are calculated by regression to a standard curve and are plotted vs. the concentration of the compounds of the invention. The EC50 of the compounds are calculated using standard methods. All data manipulations are in GraphPad Prism v9 (GraphPad, San Diego, CA).

[2] = target: T2, SST2 (Homo sapiens, UniProt P30874); test: PathHunter CHO-K1 SST2 internalization assay; details: PathHunter CHO-K1 SST2, 90 min
T2 construct: host or cells: PathHunter CHO-K1 SST2 cells
Method: SMDCs of the present invention were assessed in vitro using the human PathHunter CHO-K1 SST2 β-arrestin2 and PathHunter CHO-K1 SST2 Internalization Assays from DiscoverX. The CHO-K cells were seeded in 20 μLs of cell culture medium in a white-walled 384 well tissue culture-compatible plate at a density of 2500 cells/well. After a 48-hour incubation, cells were treated with 5 μLs of a 1:3 serially diluted SST2 SMDC prepared at 5× concentration with a final top compound concentration of 10 uM for 90 min at 37 C and in 5% CO2. 11 dilutions were tested as well as one treatment that was compound free. After incubation, the media containing treatments were discarded and 20 μL of a working solution of Beta-Glo from Promega Beta-Glo Assay System was added to each well. The plate was then incubated for 60 min at room temperature in the dark. Luminescence was measured using a Tecan plate reader. IC50 curves were generated using the nonlinear regression analysis (four-parameters) with GraphPad Prism 9. Results were the average of duplicates and are corrected for background.

[3] = test system: NCI-H524 (ATCC) human small cell lung cancer cells; details: 2 h
Method: SMDCs of the present invention were assessed in an in vitro assay evaluating the inhibition of cell proliferation. NCI-H524 (ATCC) human small cell lung cancer cells were plated in 96-well V-bottom plates (Costar) at a concentration of 5,000 cells/well. 24 h later, the cells were treated for 2 h with a SMDC. SMDC starting dose was 1 uM and two-fold serial dilutions were done for a total of 11 points. After 2 h of treatment, cells were spun down, and the drug-containing media was removed, and fresh complete media was added and used to resuspend the cells, which were spun again. After removal of the media, the cells were resuspended in complete medium and incubated for an additional 70 h. Cell proliferation was assessed using the CellTiter Glo Assay according to the standard protocol (Promega). Luminescence was measured using a TECAN plate reader. Percent proliferation inhibition was calculated using the following formula: % inhibition=(Luminescence Control−Luminescence Treatment)/Luminescence Control*100. IC50 curves were generated using the nonlinear regression analysis (four-parameter) with GraphPad Prism 9.

T2 sequence (P30874 whole entry): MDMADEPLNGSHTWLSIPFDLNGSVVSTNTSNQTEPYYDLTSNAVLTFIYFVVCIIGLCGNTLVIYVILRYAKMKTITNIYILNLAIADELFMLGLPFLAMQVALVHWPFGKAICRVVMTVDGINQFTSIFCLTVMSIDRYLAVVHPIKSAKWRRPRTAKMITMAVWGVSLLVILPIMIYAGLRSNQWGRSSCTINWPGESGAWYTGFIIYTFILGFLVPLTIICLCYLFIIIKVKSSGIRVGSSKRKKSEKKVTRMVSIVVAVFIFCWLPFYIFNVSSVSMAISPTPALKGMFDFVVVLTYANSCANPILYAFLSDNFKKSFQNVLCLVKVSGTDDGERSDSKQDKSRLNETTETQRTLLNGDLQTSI
T1 sequence (P30874 whole entry): as above

Structure (SMILES)	EC50 ([1]; read-out: hSST2 cAMP Avg EC50)	EC50 ([2]; read-out: Internalization EC50)	EC50 [3]	EC50 ([1]; hSST2 cAMP Avg EC50 (nM))	EC50 ([2]; Internalization EC50 (nM))
CCC(C)C(C(CC(=O)N1CCCC1C(OC)C(C)C(=O)NC(C)C(O)c1ccccc1)OC)N(C)C(=O)C(NC(=O)C(C(C)C)N(C)C(=O)OCc1ccc(NC(=O)[C@H](CCCNC(N)=O)NC(=O)[C@@H](NC(=O)CCOCCOCCC(=O)NCCNc2ncc(-c3cc(C)cc(F)c3)c(N3CCC(N)CC3)c2-c2nc3ccc(Cl)cc3[nH]2)C(C)C)cc1)C(C)C (stereo in doubt) [Compound 24]	0.2 nM	12 nM	13.4 nM		
CCC(C)C(C(CC(=O)N1CCCC1C(OC)C(C)C(=O)NC(C)C(O)c1ccccc1)OC)N(C)C(=O)C(NC(=O)C(C(C)C)N(C)C(=O)OCc1ccc(NC(=O)[C@H](CCCNC(N)=O)NC(=O)[C@@H](NC(=O)CCOCCOCCOCCOCCC(=O)NCCNc2ncc(-c3cc(C)cc(F)c3)c(N3CCC(N)CC3)c2-c2nc3ccc(Cl)cc3[nH]2)C(C)C)cc1)C(C)C (stereo in doubt) [Compound 25]	0.34 nM	27 nM	25 nM		
CCC(C)C(C(CC(=O)N1CCCC1C(OC)C(C)C(=O)NC(C)C(O)c1ccccc1)OC)N(C)C(=O)C(NC(=O)C(C(C)C)N(C)C(=O)OCc1ccc(NC(=O)[C@H](CCCNC(N)=O)NC(=O)[C@@H](NC(=O)CCOCCC(=O)NCCNc2ncc(-c3cc(C)cc(F)c3)c(N3CCC(N)CC3)c2-c2nc3ccc(Cl)cc3[nH]2)C(C)C)cc1)C(C)C (stereo in doubt) [Compound 26]	0.3 nM	11.6 nM	10.6 nM		
CCC(C)C(C(CC(=O)N1CCCC1C(OC)C(C)C(=O)NC(C)C(O)c1ccccc1)OC)N(C)C(=O)C(NC(=O)C(C(C)C)N(C)C(=O)OCc1ccc(NC(=O)[C@H](CCCNC(N)=O)NC(=O)[C@@H](NC(=O)CCOCCOCCOCCOCCOCCOCCOCCOCCC(=O)NCCNc2ncc(-c3cc(C)cc(F)c3)c(N3CCC(N)CC3)c2-c2nc3ccc(Cl)cc3[nH]2)C(C)C)cc1)C(C)C (stereo in doubt) [Compound 27]	0.2 nM	27.8 nM	65.5 nM		
CCC(C)C(C(CC(=O)N1CCCC1C(OC)C(C)C(=O)NC(C)C(O)c1ccccc1)OC)N(C)C(=O)C(NC(=O)C(C(C)C)N(C)C(=O)OCc1ccc(NC(=O)[C@H](CCCNC(N)=O)NC(=O)[C@@H](NC(=O)CCOCCC(=O)NCCNc2ncc(-c3cc(C)cc(F)c3)c(N3CCC(N)CC3)c2-c2nc3ccc(C(N)=O)cc3[nH]2)C(C)C)cc1)C(C)C (stereo in doubt) [Compound 28]	2 nM	704 nM	1290 nM		
CCC(C)C(C(CC(=O)N1CCCC1C(OC)C(C)C(=O)NC(C)C(O)c1ccccc1)OC)N(C)C(=O)C(NC(=O)C(C(C)C)N(C)C(=O)OCc1ccc(NC(=O)[C@H](CCCNC(N)=O)NC(=O)[C@@H](NC(=O)CNC(=O)[C@H](Cc2ccccc2)NC(=O)CNC(=O)CNC(=O)CCOCCC(=O)NCCNc2ncc(-c3cc(C)cc(F)c3)c(N3CCC(N)CC3)c2-c2nc3ccc(Cl)cc3[nH]2)C(C)C)cc1)C(C)C (stereo in doubt) [Compound 30]	0.56 nM	7.1 nM	28.6 nM		
Cc1cc(F)cc(-c2cnc(NCCNC(=O)CCOCCOCCOCCOCCNC(=O)CCCCC[N+]3=C(/C=C/C=C/C=C4/N(C)c5ccccc5C4(C)C)C(C)(C)c4ccccc43)c(-c3nc4ccc(Cl)cc4[nH]3)c2N2CCC(N)CC2)c1 [Compound 12, 1-[5-({14-[(2-{[4-(4-aminopiperidin-1-yl)-3-(6-chloro-1H-1,3-benzodiazol-2-yl)-5-(3-fluoro-5-methylphenyl)pyridin-2-yl]amino}ethyl)carbamoyl]-3,6,9,12-tetraoxatetradecan-1-yl}carbamoyl)pentyl]-3,3-dimethyl-2-[(1E,3E)-5-[(2E)-1,3,3-trimethyl-2,3-dihydro-1H-indol-2-ylidene]penta-1,3-dien-1-yl]-3H-indol-1-ium]	0.39 nM	2.9 nM			
CC[C@H](C)[C@@H]([C@@H](CC(=O)N1CCC[C@H]1[C@H](OC)[C@@H](C)C(=O)N[C@H](C)[C@@H](O)c1ccccc1)OC)N(C)C(=O)[C@@H](NC(=O)[C@H](C(C)C)N(C)C(=O)OCc1ccc(NC(=O)[C@H](C)NC(=O)[C@@H](NC(=O)[C@H](CCC(=O)O)NC(=O)CCOCCC(=O)NCCNc2ncc(-c3cc(C)cc(F)c3)c(N3CCC(N)CC3)c2-c2nc3cc(Cl)ccc3[nH]2)C(C)C)cc1)C(C)C [Compound 32] (X5-EVA[PABC][NMeV]V[Dil][Dolaproine]-X2)			155 nM		
CC[C@H](C)[C@@H]([C@@H](CC(=O)N1CCC[C@H]1[C@H](OC)[C@@H](C)C(=O)N[C@H](C)[C@@H](O)c1ccccc1)OC)N(C)C(=O)[C@@H](NC(=O)[C@H](C(C)C)N(C)C(=O)OCc1ccc(NC(=O)[C@H](CCCNC(N)=O)NC(=O)[C@@H](NC(=O)[C@H](CS(=O)(=O)O)NC(=O)CCOCCOCCOCCOCCC(=O)NCCNc2ncc(-c3cc(C)cc(F)c3)c(N3CCC(N)CC3)c2-c2nc3cc(Cl)ccc3[nH]2)C(C)C)cc1)C(C)C [Compound 81]			32 nM		
CC[C@H](C)[C@@H]([C@@H](CC(=O)N1CCC[C@H]1[C@H](OC)[C@@H](C)C(=O)N[C@H](C)[C@@H](O)c1ccccc1)OC)N(C)C(=O)[C@@H](NC(=O)[C@H](C(C)C)N(C)C(=O)OCc1ccc(NC(=O)[C@H](CCCNC(N)=O)NC(=O)[C@@H](NC(=O)[C@H](CS(=O)(=O)O)NC(=O)[C@H](CCC(=O)O)NC(=O)CCOCCC(=O)NCCNc2ncc(-c3cc(C)cc(F)c3)c(N3CCC(N)CC3)c2-c2nc3ccc(Cl)cc3[nH]2)C(C)C)cc1)C(C)C [Compound 115] (X1-E[Cya]V[Cit][PABC][NMeV]V[Dil][Dolaproine]-X2)	0.08 nM	3.6 nM			
CC[C@@]1(O)C(=O)OCc2c1cc1n(c2=O)Cc2c-1nc1cc(F)c(C)c3c1c2[C@@H](NC(=O)OCc1ccc(NC(=O)[C@H](CCCNC(N)=O)NC(=O)[C@@H](NC(=O)CCOCCOCCOCCOCCC(=O)NCCNc2ncc(-c4cc(C)cc(F)c4)c(N4CCC(N)CC4)c2-c2nc4ccc(Cl)cc4[nH]2)C(C)C)c(O[C@@H]2O[C@H](C(=O)O)[C@@H](O)[C@H](O)[C@H]2O)c1)CC3 [Compound 127]				0.26 nM	13 nM
CC[C@H](C)[C@@H]([C@@H](CC(=O)N1CCC[C@H]1[C@H](OC)[C@@H](C)C(=O)N[C@H](C)[C@@H](O)c1ccccc1)OC)N(C)C(=O)[C@@H](NC(=O)[C@H](C(C)C)N(C)C(=O)OCc1ccc(NC(=O)[C@H](CCCNC(N)=O)NC(=O)[C@@H](NC(=O)[C@H](CS(=O)(=O)O)NC(=O)CCOCCOCCOCCOCCC(=O)NCCNc2ncc(-c3cc(C)cc(F)c3)c(N3CCC(N)CC3)c2-c2nc3ccc(Cl)cc3[nH]2)C(C)C)cc1C(=O)NCCN)C(C)C [Compound 157]	0.17 nM	12 nM			
